Biological target: T1, HEK cells stably transfected with tetracycline inducible hNR1 and hNR2A (Homo sapiens, UniProt Q05586+Q12879)
T1 construct: expressed in transfected cells; host or cells: HEK cells, stably transfected, tetracycline/doxycycline inducible
Assay: Assay 1: Cell-Based Assay, cytosolic calcium response to positive allosteric modulators (with 30 μM glycine and 300 nM L-glutamate, EC30)
Settings: for EC50: cytosolic calcium response, with 30 μM glycine and 300 nM L-glutamate (EC30), — = no plateau was reached; for Max %: responses scaled relative to 100 μM L-glutamate maximal response (100%) and 0 μM L-glutamate (0%)
Method in brief: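 Cells induced 24 h with 7.5 μg mL^−1 doxycycline plus 500 μM (+)-ketamine, loaded 60 min at 37 °C with calcium dye in Mg-free HBSS (1.8 mM Ca, probenecid, 10 μM (+)-ketamine, pH 7.15). Peak RFU over 5 min after compound addition, scaled to 100 μM L-glutamate (100%) and 0 μM (0%); four-parameter Hill fit for EC50, max % if no plateau.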

T1 sequence (Q12879 23-1464, other chains not shown): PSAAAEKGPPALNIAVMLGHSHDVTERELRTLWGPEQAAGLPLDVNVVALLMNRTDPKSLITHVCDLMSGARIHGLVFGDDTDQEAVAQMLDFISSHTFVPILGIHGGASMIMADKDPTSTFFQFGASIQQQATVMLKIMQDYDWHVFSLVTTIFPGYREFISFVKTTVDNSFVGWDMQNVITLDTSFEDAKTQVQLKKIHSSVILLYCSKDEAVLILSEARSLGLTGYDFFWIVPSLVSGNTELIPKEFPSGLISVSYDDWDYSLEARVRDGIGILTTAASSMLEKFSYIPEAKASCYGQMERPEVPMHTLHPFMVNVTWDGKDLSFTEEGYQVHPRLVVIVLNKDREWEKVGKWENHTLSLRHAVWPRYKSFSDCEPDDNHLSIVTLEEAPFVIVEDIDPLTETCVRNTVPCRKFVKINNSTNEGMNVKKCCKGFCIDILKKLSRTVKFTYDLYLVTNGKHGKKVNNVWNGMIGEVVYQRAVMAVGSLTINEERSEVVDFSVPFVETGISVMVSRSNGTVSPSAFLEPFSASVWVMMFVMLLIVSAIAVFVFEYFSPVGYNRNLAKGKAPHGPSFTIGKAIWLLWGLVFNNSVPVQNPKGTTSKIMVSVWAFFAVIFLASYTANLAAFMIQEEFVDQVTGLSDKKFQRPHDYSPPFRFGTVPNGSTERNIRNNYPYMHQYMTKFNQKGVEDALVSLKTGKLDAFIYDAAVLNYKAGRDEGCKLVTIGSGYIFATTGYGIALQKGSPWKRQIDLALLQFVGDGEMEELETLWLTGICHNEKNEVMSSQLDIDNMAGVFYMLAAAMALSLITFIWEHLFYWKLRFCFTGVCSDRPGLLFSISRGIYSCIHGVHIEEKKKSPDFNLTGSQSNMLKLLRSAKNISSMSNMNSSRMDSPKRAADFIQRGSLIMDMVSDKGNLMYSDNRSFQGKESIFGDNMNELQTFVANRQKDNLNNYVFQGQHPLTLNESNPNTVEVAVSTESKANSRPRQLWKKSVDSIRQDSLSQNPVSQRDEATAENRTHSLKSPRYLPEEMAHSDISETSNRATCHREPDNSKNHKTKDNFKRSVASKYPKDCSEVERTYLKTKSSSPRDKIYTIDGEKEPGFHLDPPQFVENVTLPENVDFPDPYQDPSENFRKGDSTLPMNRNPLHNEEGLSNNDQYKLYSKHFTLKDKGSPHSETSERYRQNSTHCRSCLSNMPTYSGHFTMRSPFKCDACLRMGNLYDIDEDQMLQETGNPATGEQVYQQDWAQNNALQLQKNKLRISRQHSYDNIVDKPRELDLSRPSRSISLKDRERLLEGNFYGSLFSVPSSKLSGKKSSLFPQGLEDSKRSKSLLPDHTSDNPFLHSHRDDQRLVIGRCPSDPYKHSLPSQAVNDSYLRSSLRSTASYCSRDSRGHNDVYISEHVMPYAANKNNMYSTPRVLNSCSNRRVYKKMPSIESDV

Compound	EC50 (Table 2) [nM]	Max % (Table 2) [%]	EC50 (Table 3) [nM]
CCN(Cc1cc(=O)n2c(C#N)c(C)sc2n1)c1ccc(F)cc1 [Example 7.3, 7-[(N-ethyl-4-fluoro-anilino)methyl]-2-methyl-5-oxo-thiazolo[3,2-a]pyrimidine-3-carbonitrile]	376	156	
Cc1sc2nc(COc3ccc(F)cc3)cc(=O)n2c1C(=O)N1CCC1 [Example 1.3, 3-[(Azetidin-1-yl)carbonyl]-7-(4-fluorophenoxymethyl)-2-methyl-5H-[1,3]thiazolo[3,2-a]pyrimidin-5-one]		45	
CCN(Cc1cc(=O)n2c3c(sc2n1)CCC3C(N)=O)c1ccc(F)cc1 (stereo not shown) [Example 8.11, 6-[(N-ethyl-4-fluoro-anilino)methyl]-8-oxo-2,3-dihydro-1H-cyclopenta[3,4]thiazolo[1,4-a]pyrimidine-1-carboxamide]	2700	154	
Cc1sc2nc(COc3ccc(F)cc3)cc(=O)n2c1C(=O)NC(C)CO (stereo not shown) [Example 1.12, 7-(4-Fluorophenoxymethyl)-N-(1-hydroxypropan-2-yl)-2-methyl-5-oxo-5H-[1,3]thiazolo[3,2-a]pyrimidine-3-carboxamide]		45.5	
CCN(Cc1cc(=O)n2c(C3CC3C(N)=O)c(C)sc2n1)c1ccc(F)cc1 (stereo not shown) [Example 14.1, 2-[7-[(N-ethyl-4-fluoro-anilino)methyl]-2-methyl-5-oxo-thiazolo[3,2-a]pyrimidin-3-yl]cyclopropanecarboxamide]	2600	163	
N#CC1CC1c1csc2nc(Cn3nc(C(F)(F)F)cc3Cl)cc(=O)n12 (stereo not shown) [compound 241, 2-[7-[[5-chloro-3-(trifluoromethyl)pyrazol-1-yl]methyl]-5-oxo-thiazolo[3,2-a]pyrimidin-3-yl]cyclopropanecarbonitrile]			313
CCNC(=O)c1c(C)sc2nc(COc3ccc(F)cc3)cc(=O)n12 [Example 1.4, N-ethyl-7-(4-fluorophenoxymethyl)-2-methyl-5-oxo-5H-[1,3]thiazolo[3,2-a] pyrimidine-3-carboxamide]	11200	59.5	
O=c1cc(Cn2nc(C(F)(F)F)cc2Cl)nc2sc(C(F)(F)F)c(-c3cncc(Cl)c3)n12 [compound 255, 3-(5-chloro-3-pyridyl)-7-[[5-chloro-3-(trifluoromethyl)pyrazol-1-yl]methyl]-2-(trifluoromethyl)thiazolo[3,2-a]pyrimidin-5-one]			7860
Cc1sc2nc(Cn3ncc4cc(F)ccc43)cc(=O)n2c1[C@@H]1C[C@H]1CO (relative stereo) [Example 15.26, 7-[(5-fluoroindazol-1-yl)methyl]-3-[trans-2-(hydroxymethyl)cyclopropyl]-2-methyl-thiazolo[3,2-a]pyrimidin-5-one]	3800	123	
CCN(Cc1cc(=O)n2c3c(sc2n1)CCC31CCCC1)c1ccc(F)cc1 [Example 8.6, 6-[(N-ethyl-4-fluoro-anilino)methyl]spiro[2,3-dihydrocyclopenta[3,4]thiazolo[1,4-a]pyrimidine-1,1′-cyclopentane]-8-one]		60.5	
Cc1sc2nc(Cn3nc(C(F)(F)F)cc3C(F)(F)F)cc(=O)n2c1[C@@H]1C[C@H]1CO (relative stereo) [Example 15.2, 7-((3,5-bis(trifluoromethyl)-1H-pyrazol-1-yl)methyl)-3-(trans-2-(hydroxymethyl)cyclopropyl)-2-methyl-5H-thiazolo[3,2-a]pyrimidin-5-one]	1000	167	
O=c1cc(Cn2nc(C(F)(F)F)cc2Cl)nc2scc(Br)n12 [compound 225, 3-bromo-7-[[5-chloro-3-(trifluoromethyl)pyrazol-1-yl]methyl]thiazolo[3,2-a]pyrimidin-5-one]			8690
Cc1sc2nc(Cn3nc(C4CC4)cc3C)cc(=O)n2c1C1CC1CO (single isomer, unassigned) [Example 15.16, 7-[(3-cyclopropyl-5-methyl-pyrazol-1-yl)methyl]-3-[2-(hydroxymethyl)cyclopropyl]-2-methyl-thiazolo[3,2-a]pyrimidin-5-one]	17700	115	
CCNC(=O)c1c(OC)sc2nc(Cn3nc(C(F)(F)F)cc3Cl)cc(=O)n12 [compound 128, 7-[[5-chloro-3-(trifluoromethyl)pyrazol-1-yl]methyl]-N-ethyl-2-methoxy-5-oxo-thiazolo[3,2-a]pyrimidine-3-carboxamide]			682
CCN(Cc1cc(=O)n2c(C3CCOCC3)c(C)sc2n1)c1ccc(F)cc1 [Example 9.4, 7-[(N-ethyl-4-fluoro-anilino)methyl]-2-methyl-3-tetrahydropyran-4-yl-thiazolo[3,2-a]pyrimidin-5-one]	9200	114	
CCNC(=O)c1c(C)sc2nc(Cn3nc(C)cc3C(F)(F)F)cc(=O)n12 [compound 27, N-ethyl-2-methyl-7-[[3-methyl-5-(trifluoromethyl)pyrazol-1-yl]methyl]-5-oxo-thiazolo[3,2-a]pyrimidine-3-carboxamide]			10600
CNC(=O)c1c(C)sc2nc(Cc3cccc(C(F)F)c3F)c(F)c(=O)n12 [compound 30, 7-[[3-(difluoromethyl)-2-fluoro-phenyl]methyl]-6-fluoro-N,2-dimethyl-5-oxo-thiazolo[3,2-a]pyrimidine-3-carboxamide]			2570
CONC(=O)c1c(C)sc2nc(COc3ccc(F)cc3)cc(=O)n12 [Example 1.16, 7-((4-fluorophenoxy)methyl)-N-methoxy-2-methyl-5-oxo-5H-thiazolo[3,2-a] pyrimidine-3-carboxamide]		56.5	
Cc1sc2nc(COc3ccc(F)cc3)cc(=O)n2c1C1CC1C (stereo not shown) [Example 4.25, 7-(4-Fluorophenoxymethyl)-2-methyl-3-(2-methylcyclopropyl)-5H-[1,3]thiazolo[3,2-a]pyrimidin-5-one]	2800	109	
Cc1sc2nc(Cc3cccc(C(F)(F)F)c3F)cc(=O)n2c1-c1ncn[nH]1 [compound 240, 7-[[2-Fluoro-3-(trifluoromethyl)phenyl]methyl]-2-methyl-3-(1H-1,2,4-triazol-5-yl)thiazolo[3,2-a]pyrimidin-5-one]			37100
Cc1cc(C2CC2)n(Cc2cc(=O)n3c([C@@H]4C[C@H]4CO)c(C)sc3n2)n1 (single isomer, unassigned) [Example 15.14, 7-[(5-cyclopropyl-3-methyl-pyrazol-1-yl)methyl]-3-[2-(hydroxymethyl)cyclopropyl]-2-methyl-thiazolo[3,2-a]pyrimidin-5-one]	3100	159	
CCN(Cc1cc(=O)n2c(C3CC3C#N)c(C)sc2n1)c1ccc(F)cn1 (stereo not shown) [compound 195, 2-[7-[[ethyl-(5-fluoro-2-pyridyl)amino]methyl]-2-methyl-5-oxo-thiazolo[3,2-a]pyrimidin-3-yl]cyclopropanecarbonitrile]			74.2
CNC(=O)c1c(C)sc2nc(Cc3ccc(Cl)cc3F)cc(=O)n12 [Example 21.56, 7-[(4-chloro-2-fluoro-phenyl)methyl]-N,2-dimethyl-5-oxo-thiazolo[3,2-a]pyrimidine-3-carboxamide]		41	
Cc1sc2nc(COc3ccc(F)cc3)cc(=O)n2c1[C@@H]1C[C@H]1C#N (single isomer, unassigned) [Example 4.22, trans-2-[7-(4-Fluorophenoxymethyl)-2-methyl-5-oxo-5H-[1,3]thiazolo[3,2-a]pyrimidin-3-yl]cyclopropane-1-carbonitrile]		84.2	
